According to patent US12168650B2, “Crystalline forms of 3-(5-(2-hydroxy-2-methylpropoxy)-6-methylpyrazin-2-yl)-1H-indole-7-carbonitrile” (NIDO BIOSCIENCES, INC., priority 2022, dated 2024):
≈ marks a conversion by molar mass, not a printed value. Like-named read-outs stand apart in the source and are kept apart here.

Tests used:
Type in all cases: physicochemical
[1] = Hygroscopicity by dynamic vapor sorption (DVS)
Description: Dynamic vapor sorption (DVS) was performed on an Intrinsic, Advantage or Adventure with an oven temperature of 25° C. using water as a solvent. The sample mass was about 5-10 mg using the following method: • Cycle: 40-0-95-0-40% RH • Stage Step: 10% • Equilibrium: 0.002 dm/dt (%/min) • Minimum dm/dt stability duration: 60 min • Maximum dm/dt stage time: 360 min. Analysis of Polymorphs
Hygroscopicity of Form C was evaluated by dynamic vapor sorption (DVS) test at 25° C. Form C is non-hygroscopic below 90% relative humidity (RH). Form C absorbs about 0.2% water in 95% RH at 25° C.

[2] = Solubility in aqueous media at 37° C.; settings: for XRPD of residual solids: 24 h; for solubility at 2 h / solubility at 24 h: thermodynamic from solid
Description: The anhydrate Form C (equivalent to 8 mg of free form) was weighed into a 20 mL glass vial. 4 mL of solubility medium was added. Obtained suspensions were stirred at 37° C. at 400 rpm. Some of the suspensions were taken out at 2 hours and 24 hours, respectively. Then they were centrifuged at 3700 at 14,000 rpm for 5 (m. Supernatants were analyzed by HPLC and pH meter for solubility and pH, respectively. Residual solids (wet cakes) were characterized by XRPD to determine physical form.

[3] = Bulk stability of Form C over 1 week; settings: for Bulk (XRPD) / Color / Purity, Bulk (HPLC): Solid state
Description: Bulk stability of Form C was evaluated at 25° C./92% RH in an open container, at 40° C./75% RH in an open container and at 60° C. in a tight container over 1 week.

[4] = Solubility in solvents and mixture solvents
Text: As there may be potential Form A/H (Anhydrate) or Form I (THF solvate) in water or THF system according to the polymorph screening report, the use of water and THF were avoided in following study. […]

[5] = Interconversion of polymorphs (heating, dehydration, humidity, equilibration)
Text: In total, 15 forms were identified to be polymorphs or pseudo-polymorphs of the free form, including seven anhydrates, Forms A, C, H, J, K. L and O; four hydrates, Forms B, F, M and N; and three solvates, Forms D, E and I. In addition, a metastable form, Form G, and an amorphous form were also obtained.
The interconversion relation of polymorphs identified is outlined in FIG. 5.

[6] = pH 7.0 phosphate buffer (50 mM)
[7] = aqueous buffer, pH 3.0 citrate buffer (50 mM)
[8] = aqueous buffer, pH 5.0 acetate buffer (50 mM)
[9] = aqueous buffer, pH 7.0 phosphate buffer (50 mM)
[10] = simulated gastric fluid, pH 1.0 HCl solution (0.1N)
[11] = 25° C./92% RH, open container, 1 week
[12] = 40° C./75% RH, open container, 1 week
[13] = 60° C., tight container, 1 week

## Cc1nc(-c2c[nH]c3c(C#N)cccc23)cnc1OCC(C)(C)O [Form C, 3-(5-(2-hydroxy-2-methylpropoxy)-6-methylpyrazin-2-yl)-1H-indole-7-carbonitrile]
[1]; DVS at 25° C.
  Form after the DVS test: still in Form C
[1]; DVS at 25° C., below 90% relative humidity (RH)
  Hygroscopicity: non-hygroscopic
[1]; DVS, 95% RH at 25° C.
  Water absorbed: about 0.2%
[2]; pH 1.0 HCl solution (0.1N)
  XRPD of residual solids: Form C
  24 h (pH) of supernatant: 1.0
[2]; pH 3.0 citrate buffer (50 mM)
  XRPD of residual solids: Form C
  24 h (pH) of supernatant: 3.1
[2]; pH 5.0 acetate buffer (50 mM)
  XRPD of residual solids: Form C
  24 h (pH) of supernatant: 5.1
[2]; [6]
  XRPD of residual solids: Form C
  24 h (pH) of supernatant: 7.3
[2]; [7]
  solubility at 2 h: 5.97 µg/mL (≈ 0.0185 mM)
  solubility at 24 h: 4.08 µg/mL (≈ 0.0127 mM)
[2]; [8]
  solubility at 2 h: 5.44 µg/mL (≈ 0.0169 mM)
  solubility at 24 h: 3.85 µg/mL (≈ 0.0119 mM)
[2]; [9]
  solubility at 2 h: 5.43 µg/mL (≈ 0.0168 mM)
  solubility at 24 h: 11.6 µg/mL (≈ 0.0359 mM)
[2]; [10]
  solubility at 2 h: 17 µg/mL (≈ 0.0528 mM)
  solubility at 24 h: 14.6 µg/mL (≈ 0.0452 mM)
[3]; 25° C./92% RH open, 40° C./75% RH open, 60° C. tight container, 1 week
  Bulk stability: physically and chemically stable
[3]; [11]
  Bulk (XRPD): Form C
  Color: No color change
  Purity, Bulk (HPLC): 99.2%
[3]; [12]
  Bulk (XRPD): Form C
  Color: No color change
  Purity, Bulk (HPLC): 99.1%
[3]; [13]
  Bulk (XRPD): Form C
  Color: No color change
  Purity, Bulk (HPLC): 99.2%
[3]; before stress
  Initial purity: 99.2%
[4]; 2-ME-THF/n-hep mixtures, 50 ° C. (printed at 4/0.5, probably merged for all rows)
  XRPD: Form C
[4]; 2-MeTHF, 25° C.
  Solubility: 117 mg/mL solvent
[4]; 2-MeTHF, 50° C.
  Solubility: 154 mg/mL solvent
[4]; 2-MeTHF/n-heptane 1/1 (v/v), organic solvent or mixture, thermodynamic from solid, 2-ME-THF/n-hep = 1/1 (v/v), 25 ° C., read-out: Solubility
  Solubility: 13000 µg/mL (≈ 40.3 mM)
[4]; 2-MeTHF/n-heptane 1/2 (v/v), organic solvent or mixture, thermodynamic from solid, 2-ME-THF/n-hep = 1/2 (v/v), 25 ° C., read-out: Solubility
  Solubility: ~4000 µg/mL (≈ 12.4 mM)
[4]; 2-MeTHF/n-heptane 1/3 (v/v), organic solvent or mixture, thermodynamic from solid, 2-ME-THF/n-hep = 1/3 (v/v), 25 ° C., read-out: Solubility
  Solubility: ~2000 µg/mL (≈ 6.2 mM)
[4]; 2-MeTHF/n-heptane 4/0.5 (v/v), organic solvent or mixture, thermodynamic from solid, 2-ME-THF/n-hep = 4/0.5 (v/v), 50 ° C., read-out: Solubility
  Solubility: 122000 µg/mL (≈ 378 mM)
[4]; 2-MeTHF/n-heptane 4/1 (v/v), organic solvent or mixture, thermodynamic from solid, 2-ME-THF/n-hep = 4/1 (v/v), 50 ° C., read-out: Solubility
  Solubility: 90000 µg/mL (≈ 279 mM)
[4]; 2-MeTHF/n-heptane 4/2 (v/v), organic solvent or mixture, thermodynamic from solid, 2-ME-THF/n-hep = 4/2 (v/v), 50 ° C., read-out: Solubility
  Solubility: 49000 µg/mL (≈ 152 mM)
[4]; 2-MeTHF/n-heptane 4/4 (v/v), organic solvent or mixture, thermodynamic from solid, 2-ME-THF/n-hep = 4/4 (v/v), 50 ° C., read-out: Solubility
  Solubility: 21000 µg/mL (≈ 65.1 mM)
[4]; 2-MeTHF/n-heptane 4/8 (v/v), organic solvent or mixture, thermodynamic from solid, 2-ME-THF/n-hep = 4/8 (v/v), 50 ° C., read-out: Solubility
  Solubility: 10000 µg/mL (≈ 31 mM)
[4]; 2-MeTHF/n-heptane 4/12 (v/v), organic solvent or mixture, thermodynamic from solid, 2-ME-THF/n-hep = 4/12 (v/v), 50 ° C., read-out: Solubility
  Solubility: 5000 µg/mL (≈ 15.5 mM)
[4]; Acetone, 25° C.
  Solubility: 66 mg/mL solvent
[4]; Acetone, 50° C.
  Solubility: 122 mg/mL solvent
[4]; EA, 25° C.
  Solubility: 32 mg/mL solvent
[4]; EA, 50° C.
  Solubility: 58 mg/mL solvent
[4]; EA, 50° C. (cell printed at this row, probably merged downwards)
  XRPD: Form C
[4]; Ethanol, 25° C.
  Solubility: 27 mg/mL solvent
[4]; Ethanol, 50° C.
  Solubility: 64 mg/mL solvent
[4]; Heptane, 25° C.
  Solubility: ~2 mg/mL solvent
[4]; Heptane, 50° C.
  Solubility: ~3 mg/mL solvent
[4]; IPA, 25° C.
  Solubility: 14 mg/mL solvent
[4]; IPA, 50° C.
  Solubility: 29 mg/mL solvent
[4]; MCH, 25° C.
  Solubility: ~3 mg/mL solvent
[4]; MCH, 50° C.
  Solubility: ~3 mg/mL solvent
[4]; MEK, 25° C.
  Solubility: 63 mg/mL solvent
[4]; MEK, 50° C.
  Solubility: 110 mg/mL solvent
[4]; MEK/n-heptane 1/1 (v/v), organic solvent or mixture, thermodynamic from solid, MEK/n-hep = 1/1 (v/v), 25 ° C., read-out: Solubility
  Solubility: 16000 µg/mL (≈ 49.6 mM)
[4]; MEK/n-heptane 1/2 (v/v), organic solvent or mixture, thermodynamic from solid, MEK/n-hep = 1/2 (v/v), 25 ° C., read-out: Solubility
  Solubility: 6000 µg/mL (≈ 18.6 mM)
[4]; MEK/n-heptane 1/3 (v/v), organic solvent or mixture, thermodynamic from solid, MEK/n-hep = 1/3 (v/v), 25 ° C., read-out: Solubility
  Solubility: ~3000 µg/mL (≈ 9.31 mM)
[4]; MIBK, 25° C.
  Solubility: 21 mg/mL solvent
[4]; MIBK, 50° C.
  Solubility: 28 mg/mL solvent
[4]; THF, 25° C.
  Solubility: 247 mg/mL solvent
[4]; THF, 50° C.
  Solubility: >200 mg/mL solvent
[4]; Toluene, 25° C.
  Solubility: 5 mg/mL solvent
[4]; Toluene, 50° C.
  Solubility: 5 mg/mL solvent
[4]; Water, 25° C. (cell printed at this row, probably merged downwards)
  XRPD: Form C
[4]; Water, 25° C., read-out: Solubility
  Solubility: ~1000 µg/mL (≈ 3.1 mM)
[4]; Water, 50° C.
  Solubility: ~0 mg/mL solvent
[4]; Water, 50° C. (cell printed at this row, probably merged downwards)
  XRPD: Form C
[4]; acetone/n-heptane 1/1 (v/v), organic solvent or mixture, thermodynamic from solid, Acetone/n-hep = 1/1 (v/v), 25 ° C., read-out: Solubility
  Solubility: 18000 µg/mL (≈ 55.8 mM)
[4]; acetone/n-heptane 1/2 (v/v), organic solvent or mixture, thermodynamic from solid, Acetone/n-hep = 1/2 (v/v), 25 ° C., read-out: Solubility
  Solubility: 10000 µg/mL (≈ 31 mM)
[4]; acetone/n-heptane 1/3 (v/v), organic solvent or mixture, thermodynamic from solid, Acetone/n-hep = 1/3 (v/v), 25 ° C., read-out: Solubility
  Solubility: 5000 µg/mL (≈ 15.5 mM)
[4]; in acetone, THF, 2-MeTHF, and MEK
  Solubility in words: high solubility
[4]; in water, n-heptane, and MCH
  Solubility in words: poor solubility
[4]; mixture solvents, 25 ° C. (printed at Acetone/MCH = 1/1, probably merged for all rows)
  XRPD: Form C
[4]; n-PrOH, 25° C.
  Solubility: 21 mg/mL solvent
[4]; n-PrOH, 50° C.
  Solubility: 48 mg/mL solvent
[4]; organic solvent or mixture, thermodynamic from solid, 2-MeTHF/MCH = 1/1 (v/v), 25 ° C., read-out: Solubility
  Solubility: 18000 µg/mL (≈ 55.8 mM)
[4]; organic solvent or mixture, thermodynamic from solid, 2-MeTHF/MCH = 1/2 (v/v), 25 ° C., read-out: Solubility
  Solubility: 6000 µg/mL (≈ 18.6 mM)
[4]; organic solvent or mixture, thermodynamic from solid, 2-MeTHF/MCH = 1/3 (v/v), 25 ° C., read-out: Solubility
  Solubility: ~4000 µg/mL (≈ 12.4 mM)
[4]; organic solvent or mixture, thermodynamic from solid, Acetone/MCH = 1/1 (v/v), 25 ° C., read-out: Solubility
  Solubility: 30000 µg/mL (≈ 93.1 mM)
[4]; organic solvent or mixture, thermodynamic from solid, Acetone/MCH = 1/2 (v/v), 25 ° C., read-out: Solubility
  Solubility: 15000 µg/mL (≈ 46.5 mM)
[4]; organic solvent or mixture, thermodynamic from solid, MEK/MCH = 1/1 (v/v), 25 ° C., read-out: Solubility
  Solubility: 20000 µg/mL (≈ 62 mM)
[4]; organic solvent or mixture, thermodynamic from solid, MEK/MCH = 1/2 (v/v), 25 ° C., read-out: Solubility
  Solubility: 9000 µg/mL (≈ 27.9 mM)
[5]
  Stability compared to the other polymorph forms: most stable polymorph
